{"source": "patent US9335325B2", "about": "“Immunodominant Mycobacterium tuberculosis peptides from cell wall proteins for early diagnosis and immunization” (priority 2008, dated 2016)", "molecules": {"B1": {"name": "LipC: purified His-tagged recombinant Mtb LipC protein (SEQ ID NO:6), probable esterase (protein)", "chain": "MNQRRAAGSTGVAYIRWLLRARPADYMLALSVAGGSLPVVGKHLKPLGGVTAIGVWGARHASDFLSATAKDLLTPGINEVRRRDRASTQEVSVAALRGIVSPDDLAVEWPAPERTPPVCGALRHRRYVHRRRVLYGDDPAQLLDVWRRKDMPTKPAPVLIFVPGGAWVHGSRAIQGYAVLSRLAAQGWVCLSIDYRVAPHHRWPRHILDVKTAIAWARANVDKFGGDRNFIAVAGCSAGGHLSALAGLTANDPQYQAELPEGSDTSVDAVVGIYGRYDWEDRSTPERARFVDFLERVVVQRTIDRHPEVFRDASPIQRVTRNAPPFLVIHGSRDCVIPVEQARSFVERLRAVSRSQVGYLELPGAGHGFDLLDGARTGPTAHAIALFLNQVHRSRAQFAKEVI", "modifications": "His tag; Mycbacterium tuberculosis Strain H37Rv"}}, "assay_type_in_all_cases": "binding", "key": {"[1]": {"test_system": "antibodies in sera from HIV-TB+ patients and PPD+/PPD- healthy controls", "test": "ELISA of PTRP overlapping peptides with human sera", "details": "for Immunoreactive: PTRP peptides, biotinylated, streptavidin plates, TB patient sera; for percent of HIV-TB+ patient sera positive with the peptide in 2/3 or 3/3 tests: 60 HIV-TB+ patients, cut-off mean OD of PPD+/PPD- plus 3 SD, retested twice"}, "[2]": {"test_system": "antibodies in sera from TB patients and PPD+/PPD- healthy subjects", "test": "ELISA of PE-PGRS51 overlapping peptides with human sera", "details": "for Immunoreactive: PE-PGRS51 peptides, biotinylated, streptavidin plates, TB patient sera; for final sensitivity: percent of patients whose sera recognize the peptide: 90 sputum smear positive TB patients, positive 2/3 or 3/3 times, cut-off mean plus 4 SD; for non-specific reactivity with sera from HIV+TB- subjects: 20 HIV+TB- subjects, positive/tested"}, "[3]": {"test_system": "antibodies in sera from HIV-TB+ patients and PPD+/PPD- healthy controls", "test": "ELISA of LipC overlapping peptides with human sera", "details": "biotinylated, streptavidin plates, patient sera"}, "[4]": {"test_system": "anti-LipC antibodies in sera from TB patients", "test": "Western blot of His-tagged LipC probed with human sera", "details": "for sera showing anti-LipC antibodies: positive/tested"}}, "data": [{"molecule": "SAAPGTVIDQFVLDVAEHPV [PT-3]", "values": [{"measurement": "Immunoreactive", "setting": "[1]", "value": "++ (++ indicates that the peptides were recognized by 40% or more TB patient sera)"}]}, {"molecule": "DGGLLFGNGGAGYNSAATPG [PG-14]", "values": [{"measurement": "Immunoreactive", "setting": "[2]", "value": "++ (++ indicates that the peptides were recognized by 40% or more TB patient sera)"}]}, {"molecule": "GNGGAGGDANGNPANTSIAN [PG-29]", "values": [{"measurement": "Immunoreactive", "setting": "[2]", "value": "++ (++ indicates that the peptides were recognized by 40% or more TB patient sera)"}]}, {"molecule": "PTMVAVAPVAGADATSTVDT [PT-14]", "values": [{"measurement": "Immunoreactive", "setting": "[1]", "value": "++ (++ indicates that the peptides were recognized by 40% or more TB patient sera)"}]}, {"molecule": "LQDSGVHDVAVISEAQAATA [PT-9]", "values": [{"measurement": "percent of HIV-TB+ patient sera positive with the peptide in 2/3 or 3/3 tests", "setting": "[1]", "value": 58, "unit": "%"}, {"measurement": "Immunoreactive", "setting": "[1]", "value": "++ (++ indicates that the peptides were recognized by 40% or more TB patient sera)"}]}, {"molecule": "GGTHGTPGSGNAGGTGTGNA [PG-55]", "values": [{"measurement": "final sensitivity: percent of patients whose sera recognize the peptide", "setting": "[2]", "value": 49, "unit": "%"}, {"measurement": "Immunoreactive", "setting": "[2]", "value": "++ (++ indicates that the peptides were recognized by 40% or more TB patient sera)"}]}, {"molecule": "NGGAGGDAGHGGTGGDGGDG [PG-50]", "values": [{"measurement": "non-specific reactivity with sera from HIV+TB- subjects", "setting": "[2]", "value": "1/20"}, {"measurement": "final sensitivity: percent of patients whose sera recognize the peptide", "setting": "[2]", "value": 50, "unit": "%"}, {"measurement": "Immunoreactive", "setting": "[2]", "value": "++ (++ indicates that the peptides were recognized by 40% or more TB patient sera)"}]}, {"molecule": "QQAPVPPPPPDDPTAGFQGG [PT-34]", "values": [{"measurement": "Immunoreactive", "setting": "[1]", "value": "++ (++ indicates that the peptides were recognized by 40% or more TB patient sera)"}]}, {"molecule": "QTPDDPTFALARGAAMAAGA [PT-20]", "values": [{"measurement": "Immunoreactive", "setting": "[1]", "value": "++ (++ indicates that the peptides were recognized by 40% or more TB patient sera)"}]}, {"molecule": "MAGGNGGNAGLIGNGGTGGS [PG-16]", "values": [{"measurement": "Immunoreactive", "setting": "[2]", "value": "++ (++ indicates that the peptides were recognized by 40% or more TB patient sera)"}]}, {"molecule": "GHAGTGGRGGLLAGQHANSG [PG-52]", "values": [{"measurement": "Immunoreactive", "setting": "[2]", "value": "++ (++ indicates that the peptides were recognized by 40% or more TB patient sera)"}]}, {"molecule": "GGTGGDGGDGGHAGTGGRGG [PG-51]", "values": [{"measurement": "Immunoreactive", "setting": "[2]", "value": "++ (++ indicates that the peptides were recognized by 40% or more TB patient sera)"}]}, {"molecule": "MDVALGVAVTDRVARLALVD [PT-1]", "values": [{"measurement": "Immunoreactive", "setting": "[1]", "value": "++ (++ indicates that the peptides were recognized by 40% or more TB patient sera)"}]}, {"molecule": "TGAGGSYALTEAANVQQNLL [PG-9]", "values": [{"measurement": "Immunoreactive", "setting": "[2]", "value": "++ (++ indicates that the peptides were recognized by 40% or more TB patient sera)"}]}, {"molecule": "LSVVGDPDAPPTMVAVAPVA [PT-13]", "values": [{"measurement": "percent of HIV-TB+ patient sera positive with the peptide in 2/3 or 3/3 tests", "setting": "[1]", "value": 53, "unit": "%"}, {"measurement": "Immunoreactive", "setting": "[1]", "value": "++ (++ indicates that the peptides were recognized by 40% or more TB patient sera)"}]}, {"molecule": "DATTSLPRAEAGQSGSEGEQ [PT-23]", "values": [{"measurement": "Immunoreactive", "setting": "[1]", "value": "++ (++ indicates that the peptides were recognized by 40% or more TB patient sera)"}]}, {"molecule": "GTPGGAGVNGGNGGAGGDAN [PG-28]", "values": [{"measurement": "Immunoreactive", "setting": "[2]", "value": "++ (++ indicates that the peptides were recognized by 40% or more TB patient sera)"}]}, {"molecule": "SVAGGSLPVVGKHLKPLGGV [Lp-4]", "values": [{"measurement": "Immunoreactive", "setting": "[3]", "value": "++ (++ immunodominant based on being recognized by 45% or more patient sera)"}]}, {"molecule": "FPGWQPGMPTIPTAPPTTPV [PT-41]", "values": [{"measurement": "percent of HIV-TB+ patient sera positive with the peptide in 2/3 or 3/3 tests", "setting": "[1]", "value": 55, "unit": "%"}, {"measurement": "Immunoreactive", "setting": "[1]", "value": "++ (++ indicates that the peptides were recognized by 40% or more TB patient sera)"}]}, {"molecule": "LAAAASDVANIGSALSAANA [PG-2]", "values": [{"measurement": "non-specific reactivity with sera from HIV+TB- subjects", "setting": "[2]", "value": "2/20"}, {"measurement": "final sensitivity: percent of patients whose sera recognize the peptide", "setting": "[2]", "value": 48, "unit": "%"}, {"measurement": "Immunoreactive", "setting": "[2]", "value": "++ (++ indicates that the peptides were recognized by 40% or more TB patient sera)"}]}, {"molecule": "IAVAGCSAGGHLSALAGLTA [Lp-24]", "values": [{"measurement": "Immunoreactive", "setting": "[3]", "value": "++ (++ immunodominant based on being recognized by 45% or more patient sera)"}]}, {"molecule": "LLAGQHANSGNGGGGGTGGA [PG-53]", "values": [{"measurement": "Immunoreactive", "setting": "[2]", "value": "++ (++ indicates that the peptides were recognized by 40% or more TB patient sera)"}]}, {"molecule": "ARPADYMLALSVAGGSLPVV [Lp-3]", "values": [{"measurement": "Immunoreactive", "setting": "[3]", "value": "++ (++ immunodominant based on being recognized by 45% or more patient sera)"}]}, {"molecule": "TAIGVWGARHASDFLSATAK [Lp-6]", "values": [{"measurement": "Immunoreactive", "setting": "[3]", "value": "++ (++ immunodominant based on being recognized by 45% or more patient sera)"}]}, {"molecule": "LTGNDGVNPAPVTNPALNGA [PG-24]", "values": [{"measurement": "Immunoreactive", "setting": "[2]", "value": "++ (++ indicates that the peptides were recognized by 40% or more TB patient sera)"}]}, {"molecule": "AGAGGNGAAGGDGGANGGAG [PG-31]", "values": [{"measurement": "non-specific reactivity with sera from HIV+TB- subjects", "setting": "[2]", "value": "no cross-reactivity"}, {"measurement": "percent of HIV+TB+ patient sera recognizing the peptide (sensitivity)", "setting": "[2]; 30 smear positive HIV+TB+ patients", "value": 57, "unit": "%"}, {"measurement": "final sensitivity: percent of patients whose sera recognize the peptide", "setting": "[2]", "value": 52, "unit": "%"}, {"measurement": "Immunoreactive", "setting": "[2]", "value": "++ (++ indicates that the peptides were recognized by 40% or more TB patient sera)"}]}, {"molecule": "NDPQYQAELPEGSDTSVDAV [Lp-26]", "values": [{"measurement": "Immunoreactive", "setting": "[3]", "value": "++ (++ immunodominant based on being recognized by 45% or more patient sera)"}]}, {"molecule": "TTPPTTPVTTPPTTPPTTPV [PT-45]", "values": [{"measurement": "Immunoreactive", "setting": "[1]", "value": "++ (++ indicates that the peptides were recognized by 40% or more TB patient sera)"}]}, {"molecule": "GSRDCVIPVEQARSFVERLR [Lp-34]", "values": [{"measurement": "Immunoreactive", "setting": "[3]", "value": "++ (++ immunodominant based on being recognized by 45% or more patient sera)"}]}, {"molecule": "AHAIALFLNQVHRSRAQFAK [Lp-39]", "values": [{"measurement": "Immunoreactive", "setting": "[3]", "value": "++ (++ immunodominant based on being recognized by 45% or more patient sera)"}]}, {"molecule": "DRSLAGENHRLVATRLCWPD [PT-6]", "values": [{"measurement": "Immunoreactive", "setting": "[1]", "value": "++ (++ indicates that the peptides were recognized by 40% or more TB patient sera)"}]}, {"molecule": "PIPVPIIIPPFPGWQPGMPT [PT-40]", "values": [{"measurement": "percent of HIV-TB+ patient sera positive with the peptide in 2/3 or 3/3 tests", "setting": "[1]", "value": 52, "unit": "%"}, {"measurement": "Immunoreactive", "setting": "[1]", "value": "++ (++ indicates that the peptides were recognized by 40% or more TB patient sera)"}]}, {"molecule": "B1", "values": [{"measurement": "sera showing anti-LipC antibodies", "setting": "[4]; HIV+TB+ patients", "value": "6/6"}, {"measurement": "reactivity of control sera", "setting": "[4]; HIV+TB-, HIV-PPD+, HIV-PPD- control sera", "value": "background cross-reactivity"}, {"measurement": "sera showing anti-LipC antibodies", "setting": "[4]; HIV-TB+ patients", "value": "5/6"}, {"measurement": "sera showing anti-LipC antibodies", "setting": "[4]; TB patients (HIV-TB+ and HIV+TB+)", "value": "11/12"}]}]}
